The text below walks through data of patent publication US20260224589A1 (priority 2023, published 2026).

pIC50: −log10 of the molar value. Read-outs that look alike come from different tables or passages of the source.

The subject of this experiment is AsPC-1 cells. The experiment in a line: phospho-ERK HTRF assay in AsPC-1 cells, 4 h treatment. It is filed as cell-based. Conditions: Homo sapiens, ASPC1. A general note: Time-resolved FRET reads energy transfer from a long-lived donor to a nearby acceptor.
The mark [1] stands for this setting: AsPC-1, 4H, Table 1a class column, read-out: pERK IC50 activity range (*).
The mark [2] stands for this setting: AsPC-1, 4H, Table 1a, read-out: PERK IC50 (AsPC-1, 4H).
Setting [3] is: AsPC-1, 4h, Table 1b, read-out: PERK IC50 (AsPC-1, 4h).

For orientation: pIC50 means the negative decadic logarithm of the IC50, by convention in mol/L. Regarding `Cc1cc(N)c(F)c([C@H]2Cc3nc(OC[C@@]45CCCN4C[C@H](F)C5)nc(N4CCCn5nc(C(=O)N(C)C)c(Cl)c5C4)c3CO2)c1C(F)(F)F` [215b], the pIC50 was 6.30 to 7.00 under setting [1] and 6.88 under setting [2].

As to `CON(C)C(=O)c1nn2c(c1Cl)CN(c1nc(OC[C@]34CCCN3C[C@@H](C=C(F)F)C4)nc3c1COC(c1cc(N)cc(Cl)c1C(F)(F)F)C3)CCC2` (some centres unmarked) [compound 451], under setting [1], the pIC50 was 7.52 to 8.00. Regarding `Cc1cc(N)cc(C2Cc3nc(OC[C@@]45CCCN4CC(=C(F)F)C5)nc(N4CCCn5nc(C(=O)N(C)C)c(Cl)c5C4)c3CO2)c1C(F)(F)F` (some centres unmarked) [compound 241], the pIC50 reads like this: under setting [1], 7.00 to 7.51; under setting [2], 7.23. Regarding `CN(C)C(=O)c1nn2c(c1Cl)CN(c1nc(OC[C@@]34CCCN3CC(=C(F)F)C4)nc3c1COC(c1cc(N)cc(Cl)c1C(F)(F)F)C3)CCC2` (some centres unmarked) [compound 245], under setting [3], the pIC50 was above 8.00. On the same count and under the same terms, to `CC#Cc1cc(N)cc([C@@H]2Cc3nc(OC[C@@]45CCCN4C/C(=C\F)C5)nc(N4CCCn5nc(C(=O)N6CCCC6)c(C)c5C4)c3CO2)c1C(F)(F)F` [compound 429] belongs above 8.00; to `CC#Cc1cc(N)cc([C@@H]2Cc3nc(OC[C@@]45CCCN4C[C@H](F)C5)nc(N4CCCn5nc(C(=O)N(C)C)c(CC)c5C4)c3CO2)c1C(F)(F)F` [compound 423], above 8.00.

On to `COc1c(C(=O)N(C)C)nn2c1CN(c1nc(OC[C@@]34CCCN3C[C@H](F)C4)nc3c1COC(c1c(F)c(N)cc(Cl)c1C(F)(F)F)C3)CCC2` (some centres unmarked) [compound 249], for which the negative-log IC50 (pIC50) under setting [1] was 6.30 to 7.00 and the pIC50 under setting [2] was 6.95. On the same counts, the results for `CN(C)C(=S)c1nn2c(c1Cl)CN(c1nc(OC[C@@]34CCCN3C[C@H](F)C4)nc3c1CO[C@H](c1c(C(F)(F)F)ccc(N)c1F)C3)CCC2` [compound 223] are 6.30 to 7.00 and 6.83. One may read the IC50 as the point on the concentration scale where inhibition reaches its midpoint. As to `CN(C(=O)c1nn2c(c1Cl)CN(c1nc(OC[C@@]34CCCN3C[C@H](F)C4)nc3c1COC(c1c(C(F)(F)F)ccc(N)c1F)C3)CCC2)C1CC1` (stereo partly drawn) [compound 232, 5-(7-(3-amino-2-fluoro-6-(trifluoromethyl)phenyl)-2-(((2R,7aS)-2-fluorotetrahydro-1H-pyrrolizin-7a(5H)-yl)methoxy)-7,8-dihydro-5H-pyrano[4,3-d]pyrimidin-4-yl)-3-chloro-N-cyclopropyl-N-methyl-5,6,7,8-tetrahydro-4H-pyrazolo[1,5-a][1,4]diazepine-2-carboxamide], the pIC50 was 6.30 to 7.00 under setting [1] and 6.61 under setting [2]. Further, the IC50 reads like this: (AsPC-1, 4H, individual (R) diastereomer of Ex. 232, read-out: PERK IC50 (AsPC-1, 4H) nM, individual diastereomer (R)) above 1000 nM; (AsPC-1, 4H, individual (S) diastereomer of Ex. 232, read-out: PERK IC50 (AsPC-1, 4H) nM, individual diastereomer (S)) 166 nM. `CN(C)C(=O)c1nn2c(c1Cl)CN(c1nc(OC[C@@]34CCCN3C[C@H](F)C4)nc3c1CO[C@H](c1cc(N)cc(Cl)c1C(F)(F)F)C3)CCC2` [compound 234, 5-((S)-7-(5-amino-3-chloro-2-(trifluoromethyl)phenyl)-2-(((2R,7aS)-2-fluorotetrahydro-1H-pyrrolizin-7a(5H)-yl)methoxy)-7,8-dihydro-5H-pyrano[4,3-d]pyrimidin-4-yl)-3-chloro-N,N-dimethyl-5,6,7,8-tetrahydro-4H-pyrazolo[1,5-a][1,4]diazepine-2-carboxamide]: the negative-log IC50 (pIC50) under setting [3] is above 8.00. Regarding `CON(C)C(=O)c1nn2c(c1Cl)CN(c1nc(OC[C@@]34CCCN3C/C(=C\F)C4)nc3c1CO[C@H](c1c(F)c(N)cc(Cl)c1C(F)(F)F)C3)CCC2` [compound 461], the negative-log IC50 (pIC50) under setting [3] was above 8.00. As to `COCCN(C)C(=O)c1nn2c(c1Cl)CN(c1nc(OC[C@@]34CCCN3C[C@H](F)C4)nc3c1COC(c1c(C(F)(F)F)ccc(N)c1F)C3)CCC2` (some centres unmarked) [compound 225], the pIC50 under setting [1] was 7.00 to 7.51 and the pIC50 under setting [2] is 7.09. Take `CN(C)C(=O)c1cc2n(n1)CCCN(c1nc(OC[C@@]34CCCN3CC(=C(F)F)C4)nc3c1CO[C@H](c1cc(N)cc(Cl)c1C(F)(F)F)C3)C2` [compound 411]: the negative-log IC50 (pIC50) under setting [3] is above 8.00.

As for `CN(C)C(=O)c1nn2c(c1Cl)CN(c1nc(OCC34CCCN3CC(=C(F)F)C4)nc3c1COC(c1c(C(F)(F)F)ccc(N)c1F)C3)CCC2` (centres unmarked) [compound 231], the negative logarithm of the IC50 (pIC50) was 7.00 to 7.51 under setting [1] and 7.25 under setting [2]. Consider `CC#Cc1cc(N)cc([C@@H]2Cc3nc(OC[C@@]45CCCN4C/C(=C\F)C5)nc(N4CCCn5nc(C(=O)N(C)C)c(C)c5C4)c3CO2)c1C(F)(F)F` [compound 426], for which the negative-log IC50 (pIC50) under setting [3] was above 8.00.

As to `Cc1c(C(=O)N(C)C)nn2c1CN(c1nc(OC[C@@]34CCCN3C/C(=C\F)C4)nc3c1CO[C@H](c1c(F)c(N)cc(Cl)c1Cl)C3)CCC2` [compound 442], the negative logarithm of the IC50 (pIC50) under setting [3] is above 8.00. Consider `Nc1ccc(C(F)(F)F)c(C2Cc3nc(OC[C@@]45CCCN4C[C@H](F)C5)nc(N4CCCC(=O)CC4)c3CO2)c1F` (some centres unmarked) [compound 206], for which the pIC50 under setting [1] is below 6.30 and the pIC50 under setting [2] is below 5.00.

For the compound `CON(C)C(=O)c1nn2c(c1Cl)CN(c1nc(OC[C@@]34CCCN3C/C(=C\F)C4)nc3c1COC(c1cc(N)cc(Cl)c1C(F)(F)F)C3)CCC2` (some centres unmarked) [compound 449], the pIC50 under setting [3] is above 8.00.

As to `Cc1cc(N)c(F)c([C@@H]2Cc3nc(OC[C@@]45CCCN4C[C@H](F)C5)nc(N4CCCn5nc(C(=O)N(C)C)c(Cl)c5C4)c3CO2)c1C(F)(F)F` [215a, 5-((S)-7-(3-amino-2-fluoro-5-methyl-6-(trifluoromethyl)phenyl)-2-(((2R,7aS)-2-fluorotetrahydro-1H-pyrrolizin-7a(5H)-yl)methoxy)-7,8-dihydro-5H-pyrano[4,3-d]pyrimidin-4-yl)-3-chloro-N,N-dimethyl-5,6,7,8-tetrahydro-4H-pyrazolo[1,5-a][1,4]diazepine-2-carboxamide], the pIC50 under setting [3] was above 8.00. `CC#Cc1cc(N)c(F)c([C@@H]2Cc3nc(OC[C@@]45CCCN4C[C@H](F)C5)nc(N4CCCn5nc(C(=O)N(C)C)c(Cl)c5C4)c3CO2)c1C(F)(F)F` [compound 435]: the pIC50 under setting [3] was above 8.00. `Cc1cc(N)cc([C@@H]2Cc3nc(OC[C@@]45CCCN4C[C@H](F)C5)nc(N4CCCn5nc(C(=O)N(C)C)c(C)c5C4)c3CO2)c1C(F)(F)F` [compound 405]: the pIC50 under setting [1] was 7.52 to 8.00. `CN(C)C(=O)c1nn2c(c1Cl)CN(c1nc(OC[C@@]34CCCN3C/C(=C\F)C4)nc3c1CO[C@H](c1cc(N)ccc1C(F)(F)F)C3)CCC2` [compound 243]: the pIC50 by setting is: under setting [1], 7.52 to 8.00; under setting [2], 7.97.

Consider `C[C@@]1(O)COCCN(c2nc(OC[C@]34CCCN3C[C@@H](C=C(F)F)C4)nc3c2CO[C@H](c2cc(N)cc(Cl)c2C(F)(F)F)C3)C1` [compound 457], for which the pIC50 under setting [3] is above 8.00. Same read-out and setting: to `Cc1c(C(=O)N(C)C)nn2c1CN(c1nc(OC[C@@]34CCCN3C[C@H](F)C4)nc3c1CO[C@H](c1cc(N)cc(Cl)c1C(F)(F)F)C3)CCC2` [compound 414] belongs above 8.00. The same measure, in the same setting: to `CN(C)C(=O)c1cc2n(n1)CCCN(c1nc(OC[C@@]34CCCN3C/C(=C\F)C4)nc3c1CO[C@H](c1cc(N)cc(Cl)c1C(F)(F)F)C3)C2` [compound 301, 5-((S)-7-(5-amino-3-chloro-2-(trifluoromethyl)phenyl)-2-(((S,Z)-2-(fluoromethylene)tetrahydro-1H-pyrrolizin-7a(5H)-yl)methoxy)-7,8-dihydro-5H-pyrano[4,3-d]pyrimidin-4-yl)-N,N-dimethyl-5,6,7,8-tetrahydro-4H-pyrazolo[1,5-a][1,4]diazepine-2-carboxamide] belongs above 8.00; to `CC#Cc1cc(N)cc([C@@H]2Cc3nc(OC[C@@]45CCCN4C/C(=C\F)C5)nc(N4CCCn5nc(C(=O)N(C)C)c(CC)c5C4)c3CO2)c1C(F)(F)F` [compound 424], above 8.00. Regarding `CN(C)C(=O)c1nn2c(c1Cl)CN(c1nc(OC[C@@]34CCCN3C[C@H](F)C4)nc3c1CO[C@@H](c1c(F)c(N)cc(F)c1C(F)(F)F)C3)CCC2` [214b], the negative-log IC50 (pIC50) is below 6.30 under setting [1] and 5.81 under setting [2]. For `CN(C)C(=O)c1nn2c(c1Cl)CN(c1nc(OC[C@@]34CCCN3C[C@H](F)C4)nc3c1CO[C@H](c1c(C(F)(F)F)ccc(I)c1F)C3)CCC2` [compound 219] the same measures were below 6.30 and 6.05. On the same counts, the results for `Cc1cc(N)cc(C2Cc3nc(OC[C@@]45CCCN4C[C@H](F)C5)nc(N4CCCn5nc(C(=O)N(C)C)c(Cl)c5C4)c3CO2)c1C(F)(F)F` (some centres unmarked) [compound 239] are 7.52 to 8.00 and 7.89.

Turning to `CN(C)C(=O)c1nn2c(c1Cl)CN(c1nc(OC[C@@]34CCCN3C[C@H](F)C4)nc3c1COC(c1cc(N)cc(Cl)c1C(F)(F)F)C3)CCC2` (some centres unmarked) [compound 236], the pIC50 under setting [3] was above 8.00. Consider `CN(C)C(=O)c1nn2c(c1Cl)CN(c1nc(OC[C@@]34CCCN3C[C@H](F)C4)nc3c1COC(c1cc(N)ccc1C(F)(F)F)C3)CCC2` (stereo in doubt) [230b, 5-((R)-7-(5-amino-2-(trifluoromethyl)phenyl)-2-(((2R,7aS)-2-fluorotetrahydro-1H-pyrrolizin-7a(5H)-yl)methoxy)-7,8-dihydro-5H-pyrano[4,3-d]pyrimidin-4-yl)-3-chloro-N,N-dimethyl-5,6,7,8-tetrahydro-4H-pyrazolo[1,5-a][1,4]diazepine-2-carboxamide], for which the negative logarithm of the IC50 (pIC50) under setting [1] is 7.00 to 7.51 and the pIC50 under setting [2] is 7.89.

In the case of `CN1CCN(c2nc(OC[C@@]34CCCN3C[C@H](F)C4)nc3c2COC(c2c(C(F)(F)F)ccc(N)c2F)C3)CCC1=O` (some centres unmarked) [compound 201], the negative-log IC50 (pIC50) under setting [1] is below 6.30 and the pIC50 under setting [2] was below 5.00. As to `CN(C)C(=O)c1nn2c(c1Cl)CN(c1nc(OC[C@@]34CCCN3CC(=C(F)F)C4)nc3c1CO[C@@H](c1c(F)c(N)cc(Cl)c1C(F)(F)F)C3)CCC2` [248b, 5-((R)-7-(3-amino-5-chloro-2-fluoro-6-(trifluoromethyl)phenyl)-2-(((S)-2-(difluoromethylene)tetrahydro-1H-pyrrolizin-7a(5H)-yl)methoxy)-7,8-dihydro-5H-pyrano[4,3-d]pyrimidin-4-yl)-3-chloro-N,N-dimethyl-5,6,7,8-tetrahydro-4H-pyrazolo[1,5-a][1,4]diazepine-2-carboxamide], the pIC50 was below 6.30 under setting [1] and below 5.60 under setting [2].
